Entries after “also recorded” stand apart in the source; their conditions may differ.
Columns and labels:
[1] = Diffusion of the released dye in the agar; assay type: physicochemical; conditions: in the agar (gélose)
Experimental: (§1) Tous les substrats (composés 10c, 10d et […]) sont incorporés à la gélose à différentes concentrations couvrant une gamme de 10 à 300µg/ml.
(§2) Ces substrats sont ajoutés à la gélose à 45°C (une température de 85°C fut tolérée par les substrats), préalablement tamponnée à pH=7 et stérilisée par autoclavage. Les boîtes de gélose sont ensuite ensemencées d'une suspension de colonies, stérilement, à l'öse de platine par stries transversales et selon la méthode des quadrants. L'incubation est poursuivie durant une nuit à 37°C.
La révélation des bactéries Gram(-), rendues fluorescentes par le fluorophore S107, S108 ou S109 libéré est réalisée sous lampe UV à une longueur d'onde d'excitation de 365nm, compatible avec les dispositifs commercialisés. […]
Les colorants ne diffusent pas dans la gélose, de sorte que la fluorescence n'est émise que par les colonies bactériennes au site de leur croissance. Egalement, les réactions positives (fluorescence claire, lumineuse intense, des colonies Gram négatives sur un fond translucide, estompé bleu/vert pâle, fluorescence d'intensité plus faible pour les bactéries Gram positives) s'observent dès les concentrations faibles à 10µg/ml, ce qui confirme l'utilité de la nature hydrophobe des substrats, de l'absence de diffusion qui en découle et donc de l'efficacité des substrats préparés.

[2] = system: bactéries Gram(+) et Gram(-); test: Differentiation of Gram(+) and Gram(-) bacteria with fluorogenic substrates incorporated in agar; assay type: cell-based; conditions: in agreement with Gram staining
Excerpt: Exemple 22. Cet exemple illustre l'utilisation des dérivés de coumarines des exemples 13, 14 et 15 pour La différenciation des bactéries Gram(+) et Gram(-)par incorporation de ces dérivés de coumarines et révélation des colonies fluorescentes.
(§3) Cette différenciation fait appel à une méthode spécifique de discrimination optique des bactéries à coloration de Gram(+) ou Gram(-), qui est réalisée par l'utilisation de substrats fluorogénes de la L-alanine amino arylpeptidase, activité enzymatique retrouvée principalement dans la paroi des bactéries à coloration de Gram(-), comme il est décrit par Cerny G dans European Journal of Applied Microbiology, 1976, 3, p. 223-225, et 1978 5, p. 113-122.
(§4) Dans cet exemple, on utilise cette méthode de détection des activités enzymatiques bactériennes de la L-alanine aminoaryl peptidase avec les substrats fluorogènes S107, S108 et S109 utilisant les composés 10e, 10c et 10d des exemples 15, 13 et 14. Ces substrats sont incorporés à la gélose selon la méthode énoncée par Manafi & Kneifel dans Journal of Applied Bacteriology 1990, 69, p. 822-827.
Tous les substrats (composés 10c, 10d et […]) sont incorporés à la gélose à différentes concentrations couvrant une gamme de 10 à 300µg/ml. […]

Enterococcus faecalis = test: Agar test with incorporated fluorogenic substrates (L-alanine aminoaryl peptidase activity), fluorescence of colonies; assay type: cell-based; conditions: Gram +, substrate in agar 10 to 300 µg/ml, pH 7, overnight at 37°C, UV 365 nm
Excerpt: as §3, §4, §1
(§5) Les composés sont préalablement dissous dans le DMSO et dilués dans de l'eau bi-distillée pour constituer des solutions mères à 800µg/ml, qui peuvent être conservées au moins une semaine à +4°C. Les solutions mères sont diluées ensuite pour délivrer les paliers de concentrations définis à 10, 50, 100, 200 et 300µg/ml.
as §2
(§6) Pour chaque concentration on réalise un banc sans colonies et pour chaque type bactérien, un contrôle de culture sans substrat, de sorte que l'on ne puisse observer que les effets de la présence simultanée des colonies et du substrat incorporé à la gélose.
(§7) La révélation des bactéries Gram(-), rendues fluorescentes par le fluorophore S107, S108 ou S109 libéré est réalisée sous lampe UV à une longueur d'onde d'excitation de 365nm, compatible avec les dispositifs commercialisés. L'émission fluorescente impressionne un papier film 35mm Kodak® Ektar® 1000/30° pour un temps d'exposition au 1/60ème de seconde-process C-41.

Escherichia coli = test: as above; assay type: cell-based; conditions: Gram -, substrate in agar 10 to 300 µg/ml, pH 7, overnight at 37°C, UV 365 nm
Excerpt: as §3, §4, §1, §5, §2, §6, §7

bactéries = test: Toxicity of the substrates towards the bacteria in the agar test; assay type: cell-based; conditions: substrate in agar 10 to 300 µg/ml, high concentration = 300 µg/ml
Experimental: as §1, §5, §2, §6

SMILES | Diffusion [1] | discrimination des bactéries Gram négatives des bactéries Gram positives [2] | Test gélose aux substrats (fluorescence) (Enterococcus faecalis) | Test gélose aux substrats (fluorescence) (Escherichia coli) | Toxicité (bactéries)
CCCCCCc1cc(=O)oc2cc(NC(=O)[C@H](C)N)ccc12 [S108] | non diffusibles; also recorded: Diffusion nulle | très efficaces | Fluorescence faible | Fluorescence très importante | non toxiques; also recorded: Toxicité nulle
CCCCCCCCCc1cc(=O)oc2cc(NC(=O)[C@H](C)N)ccc12 [S107] | non diffusibles; also recorded: Diffusion nulle |  | Fluorescence très faible | Fluorescence moyenne | faible; also recorded: non toxiques; also recorded: Toxicité partielle à forte concentration

Source: patent EP0693064B1, “HYDROPHOBIC AMINOCOUMARIN DERIVATIVES AND THEIR USE AS PROTEOLYTIC ENZYME SUBSTRATES OR IN THE PREPARATION OF SUCH SUBSTRATES” (priority 1993, dated 1994)
